Measurements taken from patent US7553928B2, “Use of des-Aspartate-angiotensin I as an agent for the treatment and prevention of glomerulosclerosis and renal failure” (priority 2000, dated 2009).

Columns and labels:
normal rats = assay: Urine protein excretion in normal rats; format: in vivo, Sprague Dawley rats
Excerpt: Data were expressed as mean±SEM. […] The accepted level of significance was p<0.05.

⅚ nephrectomized rats = assay: Urine protein excretion in five-sixths nephrectomized (ablation proteinuric) rats; format: in vivo, Sprague Dawley rats; conditions: for 24-hour urinary excretion of protein, Weeks 9-16: 762 nmoles/kg/day orally for 8 weeks (weeks 9-16 post nephrectomy); for 24-hour urinary excretion of protein, Weeks 9-16 / 24-hour urinary excretion of protein, Weeks 1-8: mean ± SEM; for 24-hour urinary excretion of protein, Weeks 1-8: treatment group in weeks 1-8 post nephrectomy, before treatment started (baseline)
Method: nephrectomy was carried out as described by Morrison (11). Briefly, each animal was anaesthetized with 7% w/v chloral hydrate (0.4 g/kg, i.p.). An incision was made in the ventral abdominal wall to access the kidneys. Right nephrectomy was performed and the cranial and caudal third of the left kidney were cut off. Tissue adhesive (Histoccryl, B. Braun) was used to seal the cut ends of the left kidney and prevent bleeding. In this way 5⁄6 of the renal parenchyma was removed. This model results in focal and segmental glomerulosclerosis, resembling renal lesions in humans like oligomeganephronia, membranous nephropathy, minimal change nephritis, proliferative glomerulonephritis, analgesic nephropathy, diabetes mellitus, unilateral nephrectomy, cortical necrosis, and unilateral renal agenesis (9). Following the operation, each animal was placed in a metabolic cage for 24 hours once a week for a duration of 8 weeks. The 24-hour urine output and the concentration of protein in the urine were measured. After the 8th week, the animals were randomly divided into two groups (8 animals per group). Animals in one of the group (the treatment group) were orally administered 762 nmoles/kg/day of des-Asp-angiotensin I dissolved in 0.5 ml of saline via a 1-ml syringe with a blunted needle for a period of 8 weeks. The dose of 762 nmoles/kg/day was calculated based on the maximum effective oral anti-cardiac hypertrophic dose (250 nmole per rat of average weight of 328 g) in the original parent patent. Animals in the other group (the control group) were similarly administered with 0.5 ml of saline. Weekly measurement of 24-hour urine output and the concentration of protein in the urine in these animals were carried out for another 8 weeks. The protocol was designed based on our preliminary observation that urinary excretion of protein in the 5⁄6 nephrectomized rats commenced to increase above the normal value in 7th to 8th week post nephrectomy. A repeat of the experiment with 12 nephrectomized rats per group was carried out. Data were expressed as mean±SEM. […] The accepted level of significance was p<0.05.

Substance: des-Aspartate angiotensin I [des-Asp-angiotensin I]
- 24-hour urinary excretion of protein, Weeks 1-8 (normal rats; Table 4, normal rats, treatment group (762 nmoles/kg/day), 12 rats, mean ± SEM, saline control 18.7 ± 1.8): 16.1 ± 1.7 mg
- 24-hour urinary excretion of protein, Weeks 9-16 (normal rats; Table 4, normal rats, treatment group (762 nmoles/kg/day), 12 rats, mean ± SEM, saline control 19.9 ± 2.2): 17.8 ± 1.1 mg
- Effect on urinary excretion of protein in normal rats (normal rats; normal rats, oral dose of 762 nmoles/kg/day): no effect
- 24-hour urinary excretion of protein, Weeks 9-16 (⅚ nephrectomized rats; Table 2, first experiment, 8 rats, saline control 37.2 ± 2.3, p = 0.024): *28.7 ± 2.5 mg
- 24-hour urinary excretion of protein, Weeks 1-8 (⅚ nephrectomized rats; Table 2, first experiment, 8 rats): 16.4 ± 1.6 mg
- 24-hour urinary excretion of protein, Weeks 9-16 (⅚ nephrectomized rats; Table 3, repeat experiment, 12 rats, saline control 51.7 ± 4.7, p = 0.048): *39.6 ± 3.3 mg
- 24-hour urinary excretion of protein, Weeks 1-8 (⅚ nephrectomized rats; Table 3, repeat experiment, 12 rats): 19.9 ± 1.5 mg
- Anti-proteinuric action (progressive development of proteinuria) (⅚ nephrectomized rats; ablation nephropathic rats, oral dose of 762 nmoles/kg/day): effective agent in attenuating the progressive development of proteinuria
